Reference: a melting point compilation (Tetko et al.; mined from patent text by program, amines drawn as free bases though some values may be those of a salt)
Residues, ends and D or L forms follow the SMILES beside them. *: point of attachment. Boc = CC(C)(C)OC(=O)*; OBn = c1ccc(CO*)cc1; βAla = NCCC(=O)O

Compared with `O=Cc1cccc2ncc(-c3ccccc3)nc12`, `O=Cc1cccc2ccc(F)cc12` is lower in melting point: 149 °C for the first, 95 to 96 °C for the second.

Compared with `COc1c(N2CC[C@@H](C3(NC(=O)OC(C)(C)C)CCC3)C2)ccc2c(=O)c(C(=O)O)cn([C@@H]3C[C@@H]3F)c12`, `CCOC(=O)c1cn(C2CC2)c2c(CO)c(N3CCOCC3)c(F)cc2c1=O` is higher in melting point: 174 °C for the first, 212 to 216 °C for the second.

Compared with `CN(C(=O)c1ccc(Cl)c(Cl)c1)c1ccc(Cl)cc1CCC(=O)O`, `CC(Oc1ccc(Oc2ncc(Cl)cc2F)cc1)C(=O)O` (stereo not drawn) is lower in melting point: 159 to 160 °C for the first, 95 to 97 °C for the second.

Compared with `O=C1c2ccccc2-c2c1c1ccccc1c(=O)n2CCCCCCNS(=O)(=O)c1ccc(Br)cc1`, `CN(C)C=NS(=O)(=O)c1ccccc1-c1ccc(Cn2c(-c3ccccc3)nc(Cl)c2C=O)cc1` is higher in melting point: 188 to 190 °C for the first, 193 °C for the second.

First: CCC(CC)Nc1cc(C)nc2c1nc(C)n2-c1c(C)cc(C)cc1C
Second: COC(=O)C(Cc1cc(C)c(Oc2ccc(O)c(Cc3ccc(OC)nc3)c2)c(C)c1)NC(C)=O (stereo not drawn)
The melting point of the first is lower: 101 to 103 °C for the first, 186 to 188 °C for the second.

Compared with `Cc1cc(I)ccc1NC1=CC2=NCN(C)C2=CC1(F)C(=O)NN` (stereo not drawn), `CC(=O)c1ccc(-c2ccc(Br)cc2C)cc1` is lower in melting point: 232 to 234 °C for the first, 84 to 86 °C for the second.

Compared with `O=C1CCCc2cc(I)ccc21`, `O=C(O)C1CCc2[nH]c3ccc(Cl)cc3c2C1` (stereo not drawn) is higher in melting point: 77 to 78 °C for the first, 181 to 183 °C for the second.

Going from `CC(=O)Oc1ccc(-c2ccc(C(C)=O)cc2)cc1Br` to `CCOC(=Cc1ccc(-c2cccc(N(C)C(=O)Nc3ccc(C)cc3)c2)cc1)C(=O)O`, the melting point falls from 100 °C to 92 °C.

First: Nc1cccc(NC(=O)OCc2cc3cc(-c4ccc(F)cc4)ccc3o2)c1C(=O)O
Second: Cc1cccc(CCOc2cccc(-c3cccc(C(=O)O)c3)n2)c1
The melting point of the first is higher: 176 to 178 °C for the first, 125 to 126 °C for the second.

Compared with `COc1cc(OC)c(-c2cccs2)cc1C=CC(=O)c1ccc(S(=O)(=O)Nc2nnn[nH]2)cc1`, `COc1cc(NC(=O)c2cccc(CSc3nc(NC(C)=O)n[nH]3)c2)cc(OC)c1OC` is higher in melting point: 185 to 186 °C for the first, 196 to 201 °C for the second.

Going from `Cc1sc2[nH]c(=O)c(=O)[nH]c2c1C` to `CC1=CC(=O)C(C)=C(C)C1=O`, the melting point falls from > 300 °C to 28 °C.

First: O=C(O)Cc1ccccc1Oc1ccccc1
Second: CN(C)CCC(Cc1ccccc1C(=O)O)c1ccccc1 (stereo not drawn)
The melting point of the first is lower: 82 to 85 °C for the first, 152 to 154 °C for the second.

Compared with `CSc1nc(N)nc2c1ncn2C1C=CC(CO)C1` (stereo not drawn), `CC(C)(O)Cn1cnc2c(N)nc3ccccc3c21` is higher in melting point: 152 to 154 °C for the first, 270 to 272 °C for the second.

First: COc1cc(OCCO)c([N+](=O)[O-])cc1[N+](=O)[O-]
Second: COC(=O)c1cc([N+](=O)[O-])c(-c2ccccc2)c([N+](=O)[O-])c1
The melting point of the first is lower: 137 to 140 °C for the first, 148 °C for the second.

First: O=[N+]([O-])c1ccc(N2C[C@@H]3C[C@H]2CS3)cc1F
Second: C[C@@H](N1CCN(S(=O)(=O)c2ccc([N+](=O)[O-])cc2)CC1)[C@](O)(Cn1cncn1)c1ccc(F)cc1F
The melting point of the first is lower: 97 to 98 °C for the first, 160 to 162 °C for the second.

First: COc1ccc2sc(C(=O)OCC(C)(C)C(O)C(C)(C)C)cc2c1 (stereo not drawn)
Second: COc1ccc(C(=O)C2=C(O)C(=O)N(c3nnc(C(C)C)s3)C2c2ccc(C(C)(C)C)cc2)cc1 (stereo not drawn)
The melting point of the first is lower: 121 to 122 °C for the first, 257 °C for the second.

First: COC(=O)CCCCOc1ccc2nc3[nH]c(=O)[nH]c3cc2c1
Second: COC(=O)CCCCCCNC(=O)C(COS(C)(=O)=O)NS(=O)(=O)c1ccc(Cl)cc1 (racemic)
The melting point of the first is higher: 281 to 282 °C for the first, 77 to 82 °C for the second.

First: O=C(O)c1cn(CCF)c2nc(N3CCNCC3)c(F)cc2c1=O
Second: Brc1cccc(OCCOc2nccnc2N2CCNCC2)c1
The melting point of the first is higher: 223 to 225 °C for the first, 62 to 63 °C for the second.

First: CCOCc1nc2c(N)nc(C)c(C)c2n1NC1CCCCC1
Second: C#CCn1c(CC)nc2c(N)nc3ccccc3c21
The melting point of the first is lower: 108 to 110 °C for the first, 182 to 184 °C for the second.

First: Cn1nc(N)c2c(c1=O)OCCNC2Cc1ccccc1 (stereo not drawn)
Second: Nc1nc2ccccc2c2c1nc(CC1CC1)n2CCOc1ccccc1
The melting point of the first is higher: 195 to 196 °C for the first, 192 to 193 °C for the second.

First: CCN(CC)CCNC(=O)N1CCCC(S(=O)(=O)c2ccc(F)cc2)C1 (stereo not drawn)
Second: CCN(CC)CCNC(=O)c1ccccc1NC(=O)COc1ccc(Cl)cc1
The melting point of the first is higher: 137 to 138 °C for the first, 109 °C for the second.

First: CC(=O)SCc1nccc(SCCCSc2ccc3ncc([N+](=O)[O-])n3n2)c1C
Second: CCn1c(COCc2ccccc2)nc(C(C)C)c1Sc1cccc([N+](=O)[O-])c1
The melting point of the first is higher: 138 to 140 °C for the first, 121 to 123 °C for the second.

First: COc1ccc2c(c1)C(CCNC(C)=O)CN(Cc1ccccc1)C2 (stereo not drawn)
Second: CN(C)CCOc1ccc2[nH]c(C(=O)N3CC(CCl)c4c3cc(OCc3ccccc3)c3ncccc43)cc2c1 (stereo not drawn)
The melting point of the first is lower: 123 to 125 °C for the first, 176 to 179 °C for the second.

First: CCC(=O)Nc1ccnn1-c1c(Cl)cc(C(F)(F)F)cc1Cl
Second: Nc1nccc(Oc2ccc3c(C(=O)Nc4ccc(F)c(C(F)(F)F)c4)nsc3c2)n1
The melting point of the first is lower: 125 °C for the first, 237 to 239 °C for the second.

Compared with `CC1CN(C)c2c3c(nc4cccc(c24)O1)CCCC3` (stereo not drawn), `CN1Cc2c(-c3nnc(CCl)o3)ncn2-c2cccc(Cl)c2C1=O` is higher in melting point: 125 to 126 °C for the first, 201 to 203 °C for the second.

First: NCCCCC(OP(=O)(O)CCCCc1ccc(F)cc1)C(=O)N1CCCC1C(=O)O (stereo not drawn)
Second: COc1ccc(CCOCCCCCCNCC(O)c2ccc(O)c(CCO)c2)cc1 (stereo not drawn)
The melting point of the first is higher: 178 to 185 °C for the first, 84 to 85 °C for the second.

First: CCCCCN1C(=O)C2(COc3cc(F)c(F)cc32)c2ccccc21 (stereo not drawn)
Second: CCn1c2ccc(C)cc2c2c3ccccc3ccc21
The melting point of the first is lower: 48 to 50 °C for the first, 69 to 74 °C for the second.

First: COC1CC(n2cc(C=CBr)c(=O)n(C)c2=O)OC1CF (stereo not drawn)
Second: O=C(CC=C(Cl)C1(Cl)OC1=O)c1ccccc1 (stereo not drawn)
The melting point of the first is lower: 95 °C for the first, 121 to 122 °C for the second.

First: CC(C)(C)OC(=O)N1CCC(c2ccc(Nc3nc4c(-c5ccc(F)cc5)cccn4n3)cc2)CC1
Second: Nc1nccnc1C(=O)NCCN1CCC(Nc2nc3ccccc3n2Cc2ccc(F)cc2)CC1
The melting point of the first is lower: 88 to 91 °C for the first, 157 °C for the second.

First: CN(C)Cc1ccc(CSCCNC(=N)N[N+](=O)[O-])s1
Second: CN(C)c1ccc(C=NCCc2cccs2)cc1
The melting point of the first is higher: 118 °C for the first, 76.8 to 77 °C for the second.

Compared with `CN(C)C(=NC1CCCCC1)C(N)=S`, `NC(=O)c1cc2c(cc1OCC1CCCCC1)OCCCC2=O` is higher in melting point: 116 to 120 °C for the first, 185 to 186 °C for the second.

Compared with `CC(C)C[C@H](NC(=O)[C@H](Cc1ccccc1)NC(=O)C1CCCC1)C(=O)O`, `CCOC(=O)C(CO)NC(=O)C(CC(=O)OCc1ccccc1)NC(=O)CCNC(=O)OC(C)(C)C` (stereo not drawn) ({Boc-βAla}-Asp(OBn)-Ser-OEt; configuration not given here) is lower in melting point: 148 to 151 °C for the first, 132 to 134 °C for the second.

Compared with `O=C(O)CSc1cc(=Nc2ccccc2)ss1`, `Cc1cc(C)nc(NC(=O)NS(=O)(=O)c2ccccc2O)n1` is higher in melting point: 147 °C for the first, 180 °C for the second.

First: O=C(O)c1ccc(Cc2n[nH]c3c2c(=O)n(-c2ccccc2)c2ncccc32)cc1
Second: Cc1ccccc1C(=O)Nc1ccc(C(=O)N2Cc3cc(Cl)ccc3Oc3ccccc32)cc1
The melting point of the first is higher: > 320 °C for the first, 207 to 208 °C for the second.

Compared with `CC(=O)c1cc(C(C)(C)C)cc(C(=O)O)c1O`, `CC1(C)CCC(C)(C)c2cc(C(=O)C=Cc3ccc(C(=O)O)c(O)c3)ccc21` is higher in melting point: 159 to 161 °C for the first, 260 to 261 °C for the second.

Compared with `Cc1cc2c(cc1C)=NC(=O)N=2`, `COc1cc2c(cc1OC)CCC(C(=O)NO)=C2` is lower in melting point: > 360 °C for the first, 179 to 180 °C for the second.

First: CN1CCN(C2c3ccccc3C=Cc3ccc(Br)cc32)CC1 (stereo not drawn)
Second: COc1cccc2c1Sc1ccccc1C21CCN(C#N)CC1
The melting point of the first is lower: 128 to 130 °C for the first, 145 to 146 °C for the second.

Compared with `CC(C)N1C(=O)C(=O)NC1=NC(=NC(=O)OC(C)(C)C)Nc1ccc(Cl)c(Cl)c1`, `CC(C)NC(=NC(=O)OC(C)(C)C)N=C1NC(=O)C(=O)N1c1ccc(Cl)c(Cl)c1` is higher in melting point: 226 °C for the first, 227 °C for the second.

First: CCCCCC(C)N(C=C1C(=O)OC(C)(CNc2cc(C(C)(C)C)c(O)c(C(C)(C)C)c2)OC1=O)Cc1ccc(CC(C)(C)C)s1 (stereo not drawn)
Second: CC(C)(C)c1cc(C2=Cc3cc(-c4ccccc4)ccc3C2)cc(C(C)(C)C)c1
The melting point of the first is higher: 184 to 185 °C for the first, 122 to 123 °C for the second.

First: CSCON=C(C(=O)O)c1nccc(NC=O)n1
Second: CC(C)(C)C(=O)OCOC(=O)Cc1ccc(O)cc1
The melting point of the first is lower: 80 to 85 °C for the first, 159 to 161 °C for the second.

First: CC(C)N(C(=O)C(C)C(C#N)(c1ccccc1)c1ccccc1)C(C)C (stereo not drawn)
Second: CC(=O)SCCC(=O)N1[C@@H](c2ccccc2O)SC[C@H]1C(=O)N(c1ccccc1)[C@@H](C)C(=O)OC(C)(C)C
The melting point of the first is higher: 195 to 205 °C for the first, 140 to 142 °C for the second.

First: COc1ccc(-n2nc(Sc3ccc(OC(F)(F)F)cc3)c(C)c(C#N)c2=O)cc1
Second: COc1ccc(-c2ncn(CCC(C)(C)NCC(O)c3ccc(O)c(CO)c3)n2)cc1 (stereo not drawn)
The melting point of the first is higher: 165 to 167 °C for the first, 142 to 145 °C for the second.

First: CC(=O)Nc1ccc2c(c1)C(=O)c1cc(NC(C)=O)ccc1C2=O
Second: CC1(c2cc(-c3ccc(F)cc3F)cc(C(=O)Nc3ccc(S(=O)(=O)C(F)(F)F)cc3Cl)c2O)CCCCC1
The melting point of the first is higher: 340 °C for the first, 114 to 115 °C for the second.

Compared with `CNc1ccc(-c2nc(C)c(-c3cccnc3)[nH]2)c(OC)c1`, `C[Si](C)(C)c1ccc2c(c1)Cc1cc([Si](C)(C)C)ccc1-2` is higher in melting point: 54 to 56 °C for the first, 117 to 118 °C for the second.

First: CCN1CCC[C@H]1C(N)=O
Second: CCC1(C)CC(=O)C2(C)CCC3c4ccc(OC)cc4CCC3C12 (stereo not drawn)
The melting point of the first is higher: 107 to 108 °C for the first, 104 to 107 °C for the second.

First: C=CC[C@@H]1C[C@@H](COC(c2ccccc2)(c2ccccc2)c2ccccc2)N(Cc2ccc(OC)cc2)C1=O
Second: N#Cc1ccc(Cc2ccc(-c3ccc(C#N)cn3)o2)cc1
The melting point of the first is lower: 130 to 132 °C for the first, 204 to 206 °C for the second.

Compared with `COc1ccc(N2C(=O)C3=C(SCCO3)C2=O)nn1`, `COC1=C(OC)C(=O)C(CCCCCCCCCCCCC(=O)O)=C(C)C1=O` is lower in melting point: 157 °C for the first, 62 °C for the second.

First: CCCCCCCCCCCCCCCCOc1ccc(S(N)(=O)=O)cc1N
Second: CS(=O)(=O)c1ccc(-c2c(F)c(F)c(F)c(F)c2-c2ccc(F)cc2)cc1
The melting point of the first is lower: 103 to 105 °C for the first, 134 to 135 °C for the second.

Compared with `CC(C)(C)OC(=O)N1CO[C@@](O[Si](C)(C)C)(C(F)(F)F)[C@@H]1Cc1ccccc1`, `CC(C)(C)n1nnc(Cc2ccc(CBr)cc2)n1` is higher in melting point: 53 to 55 °C for the first, 73 to 74 °C for the second.
